Results as given in a melting point compilation (Tetko et al.; mined from patent text by program, amines drawn as free bases though some values may be those of a salt).

| melting point | SMILES |
| --- | --- |
| 287 °C | NS(=O)(=O)c1cccc(NC(=O)c2cnn3c(C(F)(F)F)cc(-c4ccc(C(F)(F)F)c(Cl)c4)nc23)c1 |
| 205 to 206 °C | CCC1(N)CCN(c2c(F)c(N)c3c(=O)c(C(=O)O)cn(C4CC4)c3c2F)C1 (stereo unspecified) |
| 92 to 93 °C | Cc1ccccc1C(=O)CC(C#N)C#N |
| 140 to 142 °C | C=CCC(=O)c1cnn(-c2ccccn2)c1S(N)(=O)=O |
| 211 to 213 °C | FC(F)(F)c1cccc(Nc2ccccc2-c2n[nH]c(=S)o2)c1 |
| 202 to 204 °C | CCN1C(=O)CC(C)(C)c2ccc(C(=O)O)cc21 |
| 65 to 75 °C | CCCCCCCCCCCCCC(C)S(=O)(=O)NC(=O)Nc1c(C(C)C)cccc1C(C)C (stereo unspecified) |
| 81 to 85 °C | CN=C(NC#N)NCCSCc1ccc(CNC)o1 |
| 83 to 83.8 °C | COc1ccc(CCNc2cc(-c3ccco3)nc(-c3nccs3)n2)cc1OC |
| 143 °C | O=C1c2ccccc2C(=O)N1c1cc(C(Cl)(Cl)Cl)ccn1 |
| 258 to 260 °C | CC1(C)OC(=O)Nc2ccc(-c3ccc(S(N)(=O)=O)s3)cc21 |
| 190 to 192 °C | Cc1c(C)c2c(c(C)c1NC=O)CC(C)(CSc1nc3ccccc3s1)O2 (stereo unspecified) |
| 82 to 84 °C | CCCN(CCC)CC1CCn2c(nc3ccccc32)S1 (stereo unspecified) |
| 155 to 160 °C | CCOC(=O)N(C(C)=O)c1ccc(OCc2nc3ccccc3s2)cc1 |
| 175 to 177 °C | CS(=O)(=O)c1ccc(-n2nc(C(F)(F)F)cc2-c2ccc(-c3cocn3)cc2)cc1 |
| 52 to 54 °C | COC(=O)CCCCCCCCc1ccc(O)cc1 |
| 116 to 118 °C | COc1ccc(C2(C#Cc3cccc(-c4noc(C)n4)c3)CCCC(=O)C2)cc1OC1CCCC1 (stereo unspecified) |
| 96 to 107 °C | NC1=NC(c2ccc(OC(F)F)cc2)(c2cccc(-c3cccnc3F)c2)C2=NCC3(COC3)CN12 (stereo unspecified) |
| 170 to 176 °C | O=C1c2ccccc2CN1c1ccc2c(c1)OCCO2 |
| 102 to 105 °C | ClCc1cnc2ccc(Cl)cc2c1Cl |
| 186 to 187 °C | CC(C)Oc1ccc(-c2cccs2)cc1C=O |
| 162 to 163 °C | O=C(NS(=O)(=O)c1ccc(Cl)cc1)N1C(=O)C(c2ccccc2)N1C(c1ccccc1)c1ccccc1 (stereo unspecified) |
| 125 to 128 °C | CS(=O)(=O)c1ncnn1CC(O)(Cc1ccccc1Cl)C1(Cl)CC1 (stereo unspecified) |
| 97 to 100 °C | CS(=O)(=O)c1ccc(-c2cnn(Cc3ccc4ccccc4n3)c(=O)c2-c2ccc(F)cc2)cc1 |

| melting point | SMILES |
| --- | --- |
| 180 to 182 °C | COc1ccc(N2CCN(CCC3OCCc4cc(C(N)=O)ccc43)CC2)cc1 (stereo unspecified) |
| > 270 °C | Cn1ncc2c1CS(=O)(=O)c1cn[nH]c1-2 |
| 148 °C | CC(=O)Nc1cc(C)c(N)c(C)c1 |
| 223 to 226 °C | Cc1nnc2cc(-c3ccncc3)ccn12 |
| 68 to 71 °C | COC(=O)C1=C(C)NC(C)=C(C(=O)OCCCCCCOc2cc(-c3ccccc3)[nH]n2)C1c1cccc(Cl)c1Cl (stereo unspecified) |
| 143 °C | Cc1ccc(S(=O)(=O)n2ccc3c(Cl)ncnc32)cc1 |
| 142 °C | CCCOc1ccc(CCNC(=O)C(F)(F)F)cc1S(=O)(=O)N=CN(C)C |
| 124 to 126 °C | CN(Cc1cccc2ccccc12)c1nc(N2CCC(N(C)C)CC2)nc2c(N3CCOCC3)ncnc12 |
| 53 to 55 °C | CCCCCCCCCCCCCCCCCCOC(=O)c1ccc(CBr)cc1 |
| 140 to 141 °C | CCOC(=O)c1cn(-c2cccnc2)nc1N |
| 177 to 178 °C | CC(=O)Nc1c(Cl)cnn(-c2ccccc2)c1=O |
| 195 to 196 °C | CC(C)CNC(=S)Nc1cccc(NC(=O)Nc2ccc(Cl)cc2)c1 |
| 239 °C | NC(N)=Nc1nc(-c2csc(CNC(=O)CO)n2)cs1 |
| 270 to 272 °C | Cc1nn(C)c2cc(-c3nn(C(C)c4oc5ccccc5c(=O)c4-c4cccc(F)c4)c4ncnc(N)c34)ccc12 (stereo unspecified) |
| 130 to 131 °C | C(=C\c1nc2ccccc2n1-c1ccccn1)/c1cccs1 |
| 188 °C | COc1ccccc1Oc1c(OC)nn(C)c1NS(=O)(=O)c1ccc(C(C)(C)C)cc1 |
| 178 to 179 °C | COc1ccc(-c2ccc(C(=O)O)cc2)cc1OCCCCc1ccccc1 |
| 65 to 67 °C | CCCCCCCCCCCCc1c(C)[nH]c(C(=O)OCC)c1C |
| 130 to 132 °C | COc1cc([N+](=O)[O-])c(N)cc1C(=O)Oc1ccccc1 |
| 118 °C | O=C(NCCN1CCC(C(=O)c2ccc(F)cc2)CC1)c1cccnc1 |
| 81 to 82 °C | CCOC(=O)C1(C)Oc2c(OC)cccc2C1=O (stereo unspecified) |
| 80 to 83 °C | CCCCCCCCCCCC(=O)NCCOCCn1c(CCOC)nc2c(N)nc3ccccc3c21 |
| 120 to 122 °C | CCc1ccc(S(=O)(=O)Nc2ccc(Cl)cc2)cc1 |
| 140 to 142 °C | CC1Cc2cccc(-c3ccccc3)c2C(=O)O1 (stereo unspecified) |

Continued, compound first:

| SMILES | melting point |
| --- | --- |
| CN1CC(CN(CCC#N)C(N)=O)CC2c3cccc4[nH]cc(c34)CC21 (stereo unspecified) | 252 to 254 °C |
| Cc1cc2c(cc1O)C(C1(CC3CCCC3)CC1)N(C)CC2 (stereo unspecified) | 136 to 138 °C |
| Cc1oc(-c2ccccc2)nc1CCOc1ccc(C[C@H](NC(=O)C=Cc2ccc(F)cc2)C(=O)O)cc1 | 188 to 190 °C |
| Cc1cc2c3c(c1)c(=O)c(C(=O)O)cn3C1CCCCC21 (stereo unspecified) | 188 to 190 °C |
| CCc1cc2c(s1)-n1c(C)nnc1C(CC(=O)Nc1ccccc1)N=C2c1ccc(Cl)cc1 (stereo unspecified) | 238 to 239 °C |
| CC(=O)N(C)c1cccc(-c2ccnc3c(C#N)cnn23)c1 | 195 to 197 °C |
| COc1ccc2c(C=O)c(OCc3ccccc3)ccc2c1C(F)(F)F | 143 to 145 °C |
| CN1CCN(Nc2cc(Cl)ccc2[N+](=O)[O-])CC1 | 108 °C |
| COC(=O)C1(CCCCl)Sc2cc(OC)ccc2OCC1=O (stereo unspecified) | 64 to 65 °C |
| Clc1ccc(Cl)c(CN2CCNc3ncc(C4=CCNCC4)cc32)c1 | 133 to 136 °C |
| CCn1cc(C(=O)O)c(=O)c2ccc(N3CCNCC3)nc21 | 272 to 273 °C |
| CCOC(=O)[C@H](Cc1ccc(-c2c(OC)cc(CO)cc2OC)cc1)NC(=O)c1c(Cl)cccc1Cl | 121 °C |
| O=C(NCCCO)c1c([N+](=O)[O-])ccc(N(CCBr)CCBr)c1[N+](=O)[O-] | 115 to 117 °C |
| Cc1noc(NS(=O)(=O)c2nccs2)c1Cl | 171 to 173 °C |
| CC(C)(C)c1cc(Cl)c2c(c1)C=NS(=O)(=O)O2 | 127 to 130 °C |
| O=c1cc(CO)oc(-c2ccccc2)c1O | 151 to 154 °C |
| Cc1nnc2n1-c1sc(CCc3ccc(O)cc3)cc1C(c1ccccc1Cl)=NC2 | 100 °C |
| CC(C)(C)N1CC(COc2cccc3c(S)nccc23)OC1=O (stereo unspecified) | 264 to 269 °C |
| Cn1nccc1C(=O)c1cc(O)c(O)c(Cl)c1Cl | 202 to 204 °C |
| C=CCNc1nnc(-c2ccc(F)c(F)c2Nc2ccc(CC)cc2F)o1 | 120 to 123 °C |
| CCCCC1(CC)CS(=O)(=O)c2ccccc2N(c2ccccc2)C1=O (stereo unspecified) | 57.6 °C |
| COc1ccc(Oc2cccc(C(=O)O)c2)cc1 | 141 to 143 °C |
| O=S(Cc1ccccc1NC1CCCC1)c1nc2ncccc2[nH]1 (stereo unspecified) | 134 °C |
| CCc1cccc2c(/C=C/C(=O)N3CCCCC3)cc(OC)c(OCOC)c12 | 85 to 86 °C |
| Cc1cccc(C)c1NC(N)=NN | 192 to 193 °C |
| O=C(C1CCCCC1)N1CC(=O)N2CCOc3ccccc3C2C1 (stereo unspecified) | 92 to 93 °C |
| O=C(O)c1cc([N+](=O)[O-])ccc1NCc1ccccc1 | 238 to 248 °C |

| SMILES | melting point |
| --- | --- |
| CC(C)n1c(=O)n(CC2CNCCO2)c2ccccc21 (stereo unspecified) | 95 °C |
| CS(=O)(=O)c1ccc(C(=O)c2c(S(C)(=O)=O)noc2C2CC2)c(Cl)c1 | 150 °C |
| COC(=O)C1CCn2c1cc(Br)c2C(=O)c1ccccc1 (stereo unspecified) | 93 °C |
| c1ccc(CSc2ncnc3c(N4CCOCC4)nc(N4CCNCC4)nc23)cc1 | 191 to 193 °C |
| Cn1c(C#N)c(C#N)n(-c2cc(O)c(Cl)cc2F)c1=O | 210 to 212 °C |
| Cc1c(CC2CCc3c(c4ccccc4n3CC3CCCC3)C2=O)ncn1C(c1ccccc1)(c1ccccc1)c1ccccc1 (stereo unspecified) | 177 to 179 °C |
| CCCCOc1nc(N)c2[nH]c(=O)n(CCCCNS(=O)(=O)c3ccc(CCC(=O)OC)cc3)c2n1 | 150 to 152 °C |
| CC(C)(CO)Cc1ccccc1 | 34 to 36 °C |
| CCOc1cc(-c2cc(C(F)(F)F)n3ncc(C(=O)Nc4cc(S(N)(=O)=O)sc4Cl)c3n2)ccc1C(F)(F)F | 281 °C |
| Oc1c(Cl)cc(Cl)cc1Cc1cc(F)cc(Cc2cc(Cl)cc(Cl)c2O)c1O | 168 °C |
| COc1cc(Nc2nc3cccc(-c4cccc(CN)c4)c3o2)cc(OC)c1OC | 145 to 150 °C |
| N#Cc1ccc(-c2cncc(OC3SCC(O)C(O)C3O)c2)cc1Cl (stereo unspecified) | 202 to 204 °C |
| CC(=O)NC(=O)CSC(C)=O | 140 to 142 °C |
| CN(O)C(=O)c1ccc(CCCCc2ccncc2)cc1 | 148 to 150 °C |
| CC(CN1CC=C(c2cccs2)CC1)N(C(=O)C1CC=CCC1)c1ccccn1 (stereo unspecified) | 92 to 96 °C |
| Cc1cc(C=O)ccc1NC(=O)OC(C)(C)C | 109 to 111 °C |
| CCCCCCCCC#CCC#CCC#CCSCC(=O)NCC | 59 °C |
| O=C1NCC=NN1c1cc(Cl)c(Sc2ccc(Cl)cc2)c(Cl)c1 | 224 to 225 °C |
| Cc1cc(C)c(Nc2nc(C)ccc2S(=O)(=O)c2ccc(OCc3ccccc3)cc2)c(C)c1 | 158 to 160 °C |
| c1cnc2cc(C34CCCN3CCC4)oc2c1 | 39 to 41 °C |
| CC1Cc2cc(Cl)c(Cl)cc2C(c2ccc([N+](=O)[O-])cc2)=NN1 (stereo unspecified) | 182 to 184 °C |
| CCOC(=O)c1cn(-c2ccc(F)cc2C)c2c(C)c([N+](=O)[O-])c(F)cc2c1=O | 207 to 209 °C |
| CCOC(=O)C(=O)c1c[nH]c2c(CC)cccc12 | 152 to 154 °C |
| Cc1ccc(-c2nnc(N3CCOCC3)nc2-c2ccc(C)cc2)cc1 | 190 to 192 °C |
| O=[N+]([O-])c1ccc2c(c1OS(=O)(=O)C(F)(F)F)CCC2 | 44 to 46 °C |
| CC#CC1(C)OC(=O)Nc2ccc(-c3cccc(Cl)c3)cc21 (stereo unspecified) | 184 to 185 °C |
